Measured values taken from patent publication US20240011094A1, “METHODS FOR DIAGNOSIS AND TREATING POLYCYSTIC OVARY SYNDROME (PCOS)” (INSTITUT NATIONAL DE LA SANTÉ ET DE LA RECHERCHE MÉDICALE, priority 2020, published 2024).
No end group written: not given here.

How the values were obtained:
[1] = test system: ovaries of PAMH F3 mice; assay: RT-qPCR gene expression in ovaries of SAM-treated PAMH F3 mice; format: in vivo, mouse
Protocol: Ovaries tissues were harvest from control F1 and PAMH F3 female mice, frozen ovaries were homogenized using 1 ml of Trizol (ThermoFisher Scientific, Cat #15596026) with a tissue homogenizer and total RNA was isolated using RNeasy Lipid Tissue Mini Kit (Qiagen; Cat #74804) following the manufacturer's instructions. For gene expression analyses, cDNA was synthetized from 1000 ng of total RNA using the High capacity RNA-to-cDNA kit (Applied Biosystems, Cat #4387406) using the manufacturer's recommended cycling conditions. Real-time PCR was carried out on Applied Biosystems 7900HT Fast Real-Time PCR system using exon-boundary-specific TaqMan® Gene Expression Assays (Applied Biosystems) (Table S4). Data were analyzed by using the 2^−ΔΔCT method (Livak and Schmittgen, 2001) and normalized to housekeeping genes Beta-actin (ActB) levels. Values are expressed relative to control values, as appropriate, set at 1.
(§1) PAMH F3 female offspring (6 months-old) were cycled for 10 days before treatment, and for additional 15 days during the treatment. CNTR female offspring (6 months-old) were not treated and were cycled for 25 days. Vaginal cytology was analyzed under an inverted microscope to record the specific stage of the estrous cycle. PAMH F3 offspring were injected intraperitoneally (i.p.) daily for 15 days with 200 μL of a solution containing 0.01M phosphate buffered saline (PBS, pH 7.4) or with SAM (50 mg/Kg/day; New England Biolegends, Cat. B9003S). This concentration was chosen based on previous in vivo pharmacological studies using the same drug (Li et al., 2012). Tail-blood samples were collected for LH and T measurements at dioestrus before the beginning of the treatments, at day 10, and at the end of the treatment, at day 25.

[2] = test system: PAMH F3 female offspring (PCOS-like mice); assay: SAM treatment of PAMH F3 female mice: estrous cyclicity, LH, T, body composition, pancreatic islets; format: in vivo, mouse
Protocol: Control F1 and PAMH F1-F3 female offspring were weaned at post-natal day P21 and checked for vaginal opening (VO) and time of first estrus. Anogenital distance (AGD) and body mass (grams, g) were measured at different ages during post-natal development (P30, 35, 40, 50 and 60). At VO and in adulthood (P60), vaginal smears were performed daily for 16 consecutive days (4-cycles) for analysis of age of first estrus and estrous cyclicity. Vaginal cytology was analyzed under an inverted microscope to identify the specific stage of the estrous cycle. The reproductive competency of these animals was determined by pairing the following mice: CNTR F1 females mated with CNTR F1 males, CNTR F1 males mated with PAMH F1-F3 females, PAMH F1-F3 females mated with PAMH F1-F3 males, for a period of 3 months. Unexperienced males and primiparous females, selected from at least three different litters, were used for the 90-days mating protocol test. Number of pups/litter (number of pups), fertility index (number of litters per females over 3 months), and time to first litter (number of days to first litter after pairing) were quantified per treatment and pairing.
LH levels were determined by a sandwich ELISA, as described previously (Steyn et al., 2013), using the mouse LH-RP reference provided by A. F. Parlow (National Hormone and Pituitary Program, Torrance, CA). Plasma T levels were analyzed using a commercial ELISA (Demeditec Diagnostics, GmnH, DEV9911) (Moore et al., 2015) according to the manufacturers' instructions.
Whole body fat, fluids, and lean tissue mass were determined by Nuclear Magnetic Resonance (MiniSpec mq 7.5, RMN Analyser, Bruker) according to the manufacturer's recommendations.
as §1

[3] = test system: NgTET1; settings: cited from earlier work
[4] = molecular target: T1, NgTET1 (Naegleria gruberi, UniProt D2W6T1); settings: cited from earlier work
T1 sequence (D2W6T1 1-321): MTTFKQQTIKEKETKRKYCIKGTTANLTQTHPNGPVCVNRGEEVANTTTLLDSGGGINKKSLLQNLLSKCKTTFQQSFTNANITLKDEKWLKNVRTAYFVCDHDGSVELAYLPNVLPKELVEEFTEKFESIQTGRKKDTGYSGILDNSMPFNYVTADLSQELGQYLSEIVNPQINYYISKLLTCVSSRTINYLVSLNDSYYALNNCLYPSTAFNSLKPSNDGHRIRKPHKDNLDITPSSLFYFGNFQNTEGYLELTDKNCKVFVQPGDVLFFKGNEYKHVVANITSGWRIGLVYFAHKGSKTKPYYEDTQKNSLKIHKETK

[5] = molecular target: mTET1 (Mus musculus, UniProt Q3URK3); settings: cited from earlier work
Chain of mTET1 (Q3URK3 whole entry, the tested form may be a part): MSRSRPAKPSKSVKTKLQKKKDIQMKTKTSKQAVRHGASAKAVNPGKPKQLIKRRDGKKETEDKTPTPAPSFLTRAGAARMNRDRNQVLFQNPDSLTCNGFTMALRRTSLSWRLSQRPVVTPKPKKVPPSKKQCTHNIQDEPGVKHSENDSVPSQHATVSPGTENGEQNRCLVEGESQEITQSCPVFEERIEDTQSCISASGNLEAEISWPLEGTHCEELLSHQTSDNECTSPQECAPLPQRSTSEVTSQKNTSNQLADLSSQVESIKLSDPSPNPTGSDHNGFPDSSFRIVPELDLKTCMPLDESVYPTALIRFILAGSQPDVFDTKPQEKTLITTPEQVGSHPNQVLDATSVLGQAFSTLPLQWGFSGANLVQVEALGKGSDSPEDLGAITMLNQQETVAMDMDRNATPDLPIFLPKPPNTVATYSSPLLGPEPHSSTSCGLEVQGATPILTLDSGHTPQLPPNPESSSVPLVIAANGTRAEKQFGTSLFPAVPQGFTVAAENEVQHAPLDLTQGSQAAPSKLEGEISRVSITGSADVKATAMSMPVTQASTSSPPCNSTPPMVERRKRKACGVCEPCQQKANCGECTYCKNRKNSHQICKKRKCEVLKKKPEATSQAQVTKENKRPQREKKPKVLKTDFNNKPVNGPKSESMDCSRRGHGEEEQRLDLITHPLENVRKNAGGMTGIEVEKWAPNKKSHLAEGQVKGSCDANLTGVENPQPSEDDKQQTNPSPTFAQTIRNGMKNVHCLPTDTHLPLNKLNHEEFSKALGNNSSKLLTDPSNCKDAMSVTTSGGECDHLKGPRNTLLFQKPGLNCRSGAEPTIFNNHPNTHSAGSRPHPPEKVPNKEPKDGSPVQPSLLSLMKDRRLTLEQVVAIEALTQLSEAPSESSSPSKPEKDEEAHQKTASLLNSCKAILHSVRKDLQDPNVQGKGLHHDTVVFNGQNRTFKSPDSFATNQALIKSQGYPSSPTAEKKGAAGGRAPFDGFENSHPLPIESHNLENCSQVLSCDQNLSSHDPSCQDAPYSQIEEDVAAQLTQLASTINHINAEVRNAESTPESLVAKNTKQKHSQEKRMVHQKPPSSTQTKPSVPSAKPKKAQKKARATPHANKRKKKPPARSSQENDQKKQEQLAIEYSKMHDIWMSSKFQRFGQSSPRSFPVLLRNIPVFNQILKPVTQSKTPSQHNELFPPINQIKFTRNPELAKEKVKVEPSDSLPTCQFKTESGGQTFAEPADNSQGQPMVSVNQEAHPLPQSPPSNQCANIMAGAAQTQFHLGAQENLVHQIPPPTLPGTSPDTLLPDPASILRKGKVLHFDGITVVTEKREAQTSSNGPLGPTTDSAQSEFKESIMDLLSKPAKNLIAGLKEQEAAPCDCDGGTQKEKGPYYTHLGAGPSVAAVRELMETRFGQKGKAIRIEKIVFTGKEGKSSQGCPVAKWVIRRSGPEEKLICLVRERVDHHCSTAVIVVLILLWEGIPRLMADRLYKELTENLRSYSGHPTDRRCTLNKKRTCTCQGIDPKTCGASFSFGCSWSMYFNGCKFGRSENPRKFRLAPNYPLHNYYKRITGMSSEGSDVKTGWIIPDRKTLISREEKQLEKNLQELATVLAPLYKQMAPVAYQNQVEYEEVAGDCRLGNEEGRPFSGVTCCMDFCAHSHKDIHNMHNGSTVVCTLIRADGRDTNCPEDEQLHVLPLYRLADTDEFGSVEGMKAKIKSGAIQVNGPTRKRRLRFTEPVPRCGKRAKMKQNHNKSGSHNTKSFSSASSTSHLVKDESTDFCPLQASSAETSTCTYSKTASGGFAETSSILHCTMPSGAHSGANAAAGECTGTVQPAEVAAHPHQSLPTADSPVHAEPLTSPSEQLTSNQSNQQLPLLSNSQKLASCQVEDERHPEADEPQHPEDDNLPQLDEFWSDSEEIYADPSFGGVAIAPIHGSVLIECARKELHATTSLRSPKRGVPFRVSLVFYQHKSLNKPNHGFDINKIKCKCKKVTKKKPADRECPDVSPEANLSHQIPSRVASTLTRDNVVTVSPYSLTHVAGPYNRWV

[6] = molecular target: T2, TET1 catalytic domain (TET1CD) (Homo sapiens, UniProt Q8NFU7); settings: cited from earlier work
T2 sequence (Q8NFU7 1418-2136 limits assumed): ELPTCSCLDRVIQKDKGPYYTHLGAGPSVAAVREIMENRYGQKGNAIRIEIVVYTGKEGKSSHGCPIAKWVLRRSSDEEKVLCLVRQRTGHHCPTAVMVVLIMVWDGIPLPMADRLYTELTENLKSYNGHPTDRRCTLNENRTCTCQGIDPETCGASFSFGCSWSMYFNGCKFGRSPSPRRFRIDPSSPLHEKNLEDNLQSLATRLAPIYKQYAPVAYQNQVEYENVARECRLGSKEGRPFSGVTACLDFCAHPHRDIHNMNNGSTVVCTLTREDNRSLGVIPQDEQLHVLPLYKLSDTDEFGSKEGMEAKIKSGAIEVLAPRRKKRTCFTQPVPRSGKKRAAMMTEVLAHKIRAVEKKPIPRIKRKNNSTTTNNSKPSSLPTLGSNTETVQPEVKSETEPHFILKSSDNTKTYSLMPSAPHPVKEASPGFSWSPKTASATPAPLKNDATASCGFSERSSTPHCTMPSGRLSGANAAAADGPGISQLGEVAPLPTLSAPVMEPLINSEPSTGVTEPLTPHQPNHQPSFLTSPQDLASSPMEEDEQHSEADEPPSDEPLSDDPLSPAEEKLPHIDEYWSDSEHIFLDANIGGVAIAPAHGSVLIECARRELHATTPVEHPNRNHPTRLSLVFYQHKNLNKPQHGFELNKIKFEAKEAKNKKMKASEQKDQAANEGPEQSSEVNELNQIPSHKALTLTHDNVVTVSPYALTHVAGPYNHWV

[7] = PAMH F3 females, SAM 50 mg/kg/day i.p. for 15 days
[8] = PAMH F3 females, dioestrus, day 25, SAM 50 mg/kg/day i.p. for 15 days

## C[S@@+](CC[C@H](N)C(=O)[O-])C[C@H]1O[C@@H](n2cnc3c(N)ncnc32)[C@H](O)[C@@H]1O (stereo in doubt) [SAM, S-Adenosyl methionine]
[1]
  Hdc ovarian gene expression: rescue
  NF-κB mRNA in ovaries: normalized
  Ptgs2 mRNA in ovaries: normalized
  Sorbs2 expression in ovaries: remained unaltered
  Uhrf1 expression in ovaries: restored
[1]; compared with controls
  Tet1 transcript levels in ovarian tissues: unaltered
[2]; PAMH F3 females, 6 months-old, SAM 50 mg/kg/day i.p. for 15 days
  percentage of completed estrous cycles: 75%
[2]; [7]
  body mass composition, % of fat mass: normalized
  body mass composition, % of lean mass: normalized
  size of the islet of Langerhans: normalized
  time spent in each estrous cycle stage (ovulation): restored normal ovulation
[2]; [8]
  LH concentrations: normalized
  T concentrations: normalized
[2]; PAMH F3 mice, postnatal SAM treatment
  major PCOS-like neuroendocrine, reproductive and metabolic traits: rescue

## cyclic peptide TET1 inhibitor, SEQ ID No 4: (Ac)YWYLPSYRVPWFC [Molecule 37]
[3]
  IC50: 1.13 µM

## O=C(O)/C=C/C(=O)N(O)CCCCCCCCNC(=S)Nc1ccc(-c2c3ccc(=O)cc-3oc3cc(O)ccc23)c(C(=O)O)c1 [Molecule 33]
[4]
  Kd: 0.25 µM

## Fumarate [Molecule 32]
[5]
  IC50: 390 µM

## O=C(O)c1ccnc(C(=O)O)c1 [Molecule 35, 2,4-pyridinedicarboxylic acid]
[3]
  IC50: 27 µM

## cyclic peptide TET1 inhibitor, SEQ ID No 3: (Ac)YLIYAYYTWWEHSC (Ac-YLIYAYYTWWEHSC; not fully specified (bridges)) [Molecule 36]
[3]
  IC50: 1.48 µM
[6]
  selectivity, inhibition of TET1CD over TET2CD: tenfold

## O=C(O)CCC(=O)C(=O)O [Molecule 3, 2-oxoglutraric acid]
[3]
  IC50: 250 µM

## O=C(O)CNC(=O)C(=O)O [Molecule 30, N-oxalylglycine]
[3]
  IC50: 49 µM

## cyclic peptide TET1 inhibitor, SEQ ID 5: (Ac)YYRVKTYYQITYVYLSC [Molecule 38]
[3]
  IC50: 1.44 µM
